Measurements taken from patent US4981690A, “Liposome-incorporated mepartricin” (priority 1987, dated 1991).
Where two headings read alike, the source gives them in different places.

How the values were obtained:
[1] = water, cited from earlier work
HTLV-III/LAV = details: H9 cells; Schaffner et al. 1986; cited from earlier work
human red blood cells = assay: Lysis of human red blood cells (hemoglobin release at 550 nm); assay type: cell-based; details: SLS present in F-SPA-222
Method: The human RBCs were incubated at 37° C. for 45 min. with ( X) free-SPA-222, (Δ) sodium lauryl sulfate, ( .circle. ) free SPA-160, ( .circle. ) liposomal SPA-160 (L-SPA-160) in liposomes composed of DMPC:DMPG (7:3), ( ) L-SPA-160 in liposomes composed of DMPC:DMPG+cholesterol (9:1) or ( ) L-SPA-160 in liposomes composed of DMPC:DMPG+ergosterol (9:1)
Lysis of human red blood cells (HRBCs) was quantitated by measuring the release of hemoglobin in the supernatants at 550 nm, as described previously (Mehta et al., Biochim. Biophys, Acta., Vol. 770, pp. 230-234 (1984)). Various doses of L-SPA were incubated with fresh washed human RBCs at 37° C. for 45 minutes,24 hr, 48 hr and 96 hr.
Lysis of HRBCs was quantitated by measuring the release of hemoglobin in the supernatants at 550 nm as previously described (Mehta et al., (1984) Biochem. Biophys. Acts, 770:230). Various doses of L-SPA-160 were incubated with fresh washed HRBCs at 37° C. for 45 minutes, 24, 48 and 96 hrs. Free-SPA-222, stock dissolved in water and diluted with isotonic PBS was added to the assay. F-SPA-160 as DMFA solution diluted with isotonic PBS was also used as a control and contained 3% DMFA at a final concentration of drug at 300 ug ml. Appropriate solvent controls and empty liposomes were also included in each experiment. […]

[2] = compared with partricin; cited from earlier work

C[C@@H]1[C@H](O)[C@@H](C)/C=C/C=C/C=C/C=C/C=C/C=C/C=C/[C@H](O[C@@H]2O[C@H](C)[C@@H](O)[C@H](N)[C@@H]2O)C[C@@H]2O[C@](O)(C[C@@H](O)C[C@@H](O)[C@H](O)CC[C@@H](O)C[C@@H](O)CC(=O)O[C@H]1C)C[C@H](O)[C@H]2C(=O)O [Amphotericin B]
Aqueous solubility (in words) [1]: insoluble in water
Inhibition of HTLV-III/LAV replication (in words) (HTLV-III/LAV): inhibited

CCCCCCCCCCCCOS(=O)(=O)[O-].[Na+] [SLS, sodium lauryl sulphate]
Share of F-SPA-222 RBC toxicity associated with SLS (human red blood cells): Fifty percent

C[C@@H]1[C@H](O)[C@@H](C)/C=C/C=C/CC/C=C/C=C/C=C/C=C/C(O[C@H]2O[C@H](C)[C@@H](O)[C@H](N)[C@@H]2O)CC2O[C@](O)(CC(O)C(O)CCC(O)CC(O)CC(O)CC(=O)O[C@H]1C)CC(O)C2C(=O)O (some centres unmarked) [Nystatin]
Aqueous solubility (in words) [1]: aqueous insolubility

COC(=O)[C@H]1[C@@H]2C[C@@H](O[C@@H]3O[C@H](C)[C@@H](O)[C@H](N)[C@@H]3O)/C=C/C=C/C=C/C=C/C=C/C=C/C=C/[C@H](C)[C@@H](O)[C@@H](C)[C@H](C)OC(=O)C[C@H](O)C[C@H](O)CC[C@@H](O)[C@H](O)C[C@H](O)C[C@](O)(C[C@@H]1O)O2 [amphotericin B methyl ester ascorbate]
Inhibition of HTLV-III/LAV replication (in words) (HTLV-III/LAV): inhibited

Mepartricin
Toxicity to animals relative to partricin (in words) [2]: much less toxic to animals than partricin
Aqueous solubility (in words) [1]: low aqueous solubility
Aqueous solubility (in words) ([1]; listed as mepartricin): substantially water-insoluble
